Results as given in patent US12370256B2, “Activation of resident memory T cells for the treatment of cancer” (Regents of the University of Minnesota, priority 2017, dated 2025).

Tested on: B16 melanoma
Format: in vivo, C57B/6 mice

“SIINFEKL (Synthetically generated peptide)” was tested, and the “tumor growth (tumor size)” value (peptide alone, 0.5 μg in 30 μl PBS into established palpable tumor, once or twice 2 days apart, no adjuvant) was “significant inhibition of a rapidly growing tumor” and the “tumor size and survival, peptide combined with PD-L1 blockade” value (peptide twice intratumorally over 48 h plus three i.v. injections of anti-PDL1) was “synergizes with PD-L1 blockade”.
